According to patent US20240245691A1 (Sitryx Therapeutics Limited, priority 2021, published 2024):
Read-outs that look alike come from different tables or passages of the source.

Experiments:
IL-1β = experiment: THP-1 AlphaLISA IL-1β cytokine assay (differentiated THP-1 cells); format: cell-based
Protocol: (§1) Measuring Inhibitory Effects on IL-1V Cytokine and IL-6 Output from THP-1s
(§2) The cytokine inhibition profiles of compounds of formula (I) were determined in a differentiated THP-1 cell assay. All assays were performed in RPMI-1640 growth medium (Gibco), supplemented with 10% fetal bovine serum (FBS; Gibco), 1% penicillin-streptomycin and 1% sodium pyruvate unless specified otherwise. The IL-1β and IL-6 cytokine inhibition assays were run in a background of differentiated THP-1 cells as described below. All reagents described were from Sigma-Aldrich unless specified otherwise. Compounds were prepared as 10 mM DMSO stocks.
(§3) THP-1 cells were expanded as a suspension up to 80% confluence in appropriate growth medium. Cells were harvested, suspended, and treated with an appropriate concentration of phorbol 12-myristate 13-acetate (PMA) over a 72 hr period (37° C./5% CO2).
(§4) Following 72 hrs of THP-1 cell incubation, cellular medium was removed and replaced with fresh growth media containing 1% of FBS. Working concentrations of compounds were prepared separately in 10% FBS treated growth medium and pre-incubated with the cells for 30 minutes (37° C./5% CO2). Following the 30 minute compound pre-incubation, THP-1s were treated with an appropriate concentration of LPS and the THP-1s were subsequently incubated for a 24 hr period (37° C./5% CO2). An appropriate final concentration of Nigericin was then dispensed into the THP-1 plates and incubated for 1 hour (37° C./5% CO2) before THP-1 supernatants were harvested and collected in separate polypropylene 96-well holding plates.
(§5) Reagents from each of the IL-1β and IL-6 commercial kits (Perkin Elmer) were prepared and run according to the manufacturer's instructions. Subsequently, fluorescence signal detection in a microplate reader was measured (EnVision® Multilabel Reader, Perkin Elmer).
(§6) Percentage inhibition was calculated per cytokine by normalising the sample data to the high and low controls used within each plate (+/−LPS respectively).
(§7) Dimethyl itaconate and 4-octyl itaconate were included as comparator compounds.

IL-6 = experiment: THP-1 AlphaLISA IL-6 cytokine assay (differentiated THP-1 cells); format: cell-based; details: Homo sapiens
Protocol: as §1, §2, §3, §4, §5, §6, §7

[1] = Hepatocyte stability assay, human; format: in vitro ADME; details: human, hepatocytes, T½
Source text: (§8) Defrosted cryo-preserved hepatocytes (viability>70%) were used to determine the metabolic stability of a compound via calculation of intrinsic clearance (CIint; a measure of the removal of a compound from the liver in the absence of blood flow and cell binding). Clearance data are particularly important for in vitro work as they can be used in combination with in vivo data to predict the half-life and oral bioavailability of a drug.
(§9) The metabolic stability in hepatocytes assay involved a time-dependent reaction using both positive and negative controls. The cells must be pre-incubated at 37° C. then spiked with test compound (and positive control); samples taken at pre-determined time intervals were analysed to monitor the change in concentration of the initial drug compound over 60 minutes. A buffer incubation reaction (with no hepatocytes present) acted as a negative control and two cocktail solutions, containing compounds with known high and low clearance values (verapamil/7-hydroxycoumarin and propranolol/diltiazem), acted as positive controls. • 1. The assay was run with a cell concentration of 0.5×10^6 cells/mL in Leibovitz buffer. • 2. All compounds and controls were run in duplicate. • 3. Compound concentration was 10 μM. • 4. All compounds and controls were incubated with both cells and buffer to show turnover is due to hepatic metabolism. • 5. All wells on the incubation plate had 326.7 μL of either cells or buffer added. • 6. Prior to assay, cell and buffer-only incubation plates were preincubated for 10 mins at 37° C. • 7. The assay was initiated by adding compounds, 3.3 μL of 1 mM in 10% DMSO-90% Buffer; final DMSO concentration is 0.1%. • 8. Samples were taken at regular timepoints (0, 5, 10, 20, 40, 60 min) until 60 mins. • 9. Sample volume was 40 μL and added to 160 μL of crash solvent (acetonitrile with internal standard) and stored on ice. • 10. At the end of the assay, the crash plates were centrifuged at 3500 rpm for 20 mins at 4° C. • 11. 80 μL of clear supernatant was removed and mixed with 80 μL of deionised water before being analysed by LC-MS/MS.
(§10) Raw LC-MS/MS data were exported to, and analysed in, Microsoft Excel for determination of intrinsic clearance. The percentage remaining of a compound was monitored using the peak area of the initial concentration as 100%. Intrinsic clearance and half-life values were calculated using a graph of the natural log of percentage remaining versus the time of reaction in minutes.
(§11) 4-Octyl itaconate was included as a comparator compound.

[2] = test system: cryo-preserved hepatocytes; experiment: Hepatocyte stability assay, human; format: in vitro ADME; details: human, hepatocytes
Source text: as §8, §9, §10, §11

[3] = Hepatocyte stability assay, mouse; format: in vitro ADME; details: mouse, hepatocytes, T½
Source text: as §8, §9, §10, §11

[4] = test system: cryo-preserved hepatocytes; experiment: Hepatocyte stability assay, mouse; format: in vitro ADME; details: mouse, hepatocytes
Source text: as §8, §9, §10, §11

[5] = test system: NRF2 (nuclear factor erythroid 2-related factor 2); experiment: NRF2 +/-GSH activation assay (DiscoverX PathHunter NRF2 translocation kit, U2OS cells); format: cell-based; details: Homo sapiens; for Emax: U2OS, normalised to dimethyl fumarate high control; for EC50: U2OS PathHunter cells, 6 hours
[6] = Homo sapiens, THP-1, differentiated THP-1 cells, LPS 24 hr then Nigericin 1 hour, read-out: IL-1β (IC50)
[7] = THP-1, differentiated THP-1 cells, LPS 24 hr then Nigericin 1 hour, read-out: IL-6 (IC50)
[8] = +GSH, read-out: NRF2 activation Emax, +GSH
[9] = −GSH, read-out: NRF2 activation Emax, −GSH
[10] = +GSH, read-out: NRF2 activation EC50, +GSH
[11] = −GSH, read-out: NRF2 activation EC50, −GSH

C=C(CC(=O)NC1(c2ccc(C(F)(F)F)cc2)CCCC1)C(=O)O [Example 14, 2-methylene-4-oxo-4-((1-(4-(trifluoromethyl)phenyl)cyclopentyl)amino) butanoic acid]
IC50 (IL-1β; [6]): 58.3 µM | IC50 (IL-6; [7]): > 100 µM | half-life at 10 μM [1]: > 7.67 h | Clint [2]: <3 μL min^−1 10^−6 cells | half-life at 10 μM [3]: 6.48 h | Clint [4]: 4 μL min^−1 10^−6 cells

C=C(CC(=O)NC(c1ccc(C(F)(F)F)cc1)C1CC1)C(=O)O (stereo not drawn) [Example 10, 4-((cyclopropyl(4-(trifluoromethyl)phenyl)methyl)amino)-2-methylene-4-oxobutanoic acid]
IC50 (IL-1β; [6]): 16.6 µM | IC50 (IL-6; [7]): > 100 µM | half-life at 10 μM [1]: > 7.67 h | Clint [2]: <3 μL min^−1 10^−6 cells | half-life at 10 μM [3]: > 7.67 h | Clint [4]: <3 μL min^−1 10^−6 cells

C=C(CC(=O)N[C@@H](C)c1ccc(C(F)(F)F)cc1)C(=O)OCCN(C)C [Example 26, 2-(dimethylamino)ethyl (S)-2-methylene-4-oxo-4-((1-(4-(trifluoromethyl)phenyl)ethyl)amino)butanoate]
IC50 (IL-1β; [6]): 5.1 µM | IC50 (IL-6; [7]): 3.9 µM | half-life at 10 μM [1]: 0.4 h | Clint [2]: 62 μL min^−1 10^−6 cells | half-life at 10 μM [3]: < 0.05 h | Clint [4]: >460 μL min^−1 10^−6 cells

C=C(CC(=O)NC(c1ccc(C(F)(F)F)cc1)C(F)(F)F)C(=O)O (stereo not drawn) [Example 7, 2-methylene-4-oxo-4-((2,2,2-trifluoro-1-(4-(trifluoromethyl)phenyl)ethyl)amino)butanoic acid]
IC50 (IL-1β; [6]): 8.2 µM | IC50 (IL-6; [7]): > 100 µM | half-life at 10 μM [1]: > 7.67 h | Clint [2]: <3 μL min^−1 10^−6 cells | half-life at 10 μM [3]: 1.25 h | Clint [4]: 21 μL min^−1 10^−6 cells

C=C(CC(=O)NC1CCCCCCC1)C(=O)OC1CCN(S(C)(=O)=O)CC1 [Example 2, 1-(methylsulfonyl)piperidin-4-yl 4-(cyclooctylamino)-2-methylene-4-oxobutanoate]
IC50 (IL-1β; [6]): 8.5 µM | Emax [5, 8]: 90% | Emax [5, 9]: 127% | EC50 [5, 10]: 41.9 µM | EC50 [5, 11]: 24.9 µM | half-life at 10 μM [1]: 2 h | half-life at 10 μM ([1]; data from repeated experiments): 1.28 h | Clint [2]: 14 μL min^−1 10^−6 cells | Clint, data from repeated experiments [2]: 21ª μL min^−1 10^−6 cells | half-life at 10 μM [3]: 0.983 h | half-life at 10 μM ([3]; data from repeated experiments): 0.15 h | Clint [4]: 119 μL min^−1 10^−6 cells | Clint, data from repeated experiments [4]: 156ª μL min^−1 10^−6 cells

C=C(CC(=O)N[C@@H](C)c1ccc(C(F)(F)C(F)(F)F)cc1)C(=O)O [Example 20, (S)-2-methylene-4-oxo-4-((1-(4-(perfluoroethyl)phenyl)ethyl)amino)butanoic acid]
IC50 (IL-1β; [6]): 17.4 µM | IC50 (IL-6; [7]): > 100 µM | half-life at 10 μM [1]: > 7.67 h | Clint [2]: <3 μL min^−1 10^−6 cells | half-life at 10 μM [3]: 0.633 h | Clint [4]: 38 μL min^−1 10^−6 cells

C=C(C(=O)O)C(C)(C)C(=O)N[C@@H](C)c1ccc(C(F)(F)F)cc1 [Example 50, (S)-3,3-dimethyl-2-methylene-4-oxo-4-((1-(4-(trifluoromethyl)phenyl)ethyl)amino)butanoic acid]
IC50 (IL-1β; [6]): 1.1 µM | IC50 (IL-6; [7]): > 100 µM | half-life at 10 μM [1]: > 7.67 h | Clint [2]: <3 μL min^−1 10^−6 cells | half-life at 10 μM [3]: 1.73 h | Clint [4]: 13 μL min^−1 10^−6 cells

C=C(CC(=O)NC1(c2ccc(C(F)(F)F)cn2)CCC1)C(=O)O [Example 39, 2-methylene-4-oxo-4-((1-(5-(trifluoromethyl)pyridin-2-yl)cyclobutyl)amino) butanoic acid]
IC50 (IL-1β; [6]): 15.4 µM | IC50 (IL-6; [7]): > 100 µM | half-life at 10 μM [1]: > 7.67 h | Clint [2]: <3 μL min^−1 10^−6 cells | half-life at 10 μM [3]: > 7.67 h | Clint [4]: <3 μL min^−1 10^−6 cells

C/C=C(/CC(=O)N[C@@H](C)c1ccc(C(F)(F)F)cc1)C(=O)O [Example 41, (S,Z)-2-(2-oxo-2-((1-(4-(trifluoromethyl)phenyl)ethyl)amino)ethyl)but-2-enoic acid]
IC50 (IL-1β; Homo sapiens, THP-1, read-out: IL-1β (IC50)): 24.3 µM | IC50 (IL-6; THP-1, read-out: IL-6 (IC50)): > 31.6 µM | half-life at 10 μM [1]: > 7.67 h | Clint [2]: <3 μL min^−1 10^−6 cells | half-life at 10 μM [3]: > 7.67 h | Clint [4]: <3 μL min^−1 10^−6 cells

CC(C)/C=C(\CC(=O)N[C@@H](C)c1ccc(C(F)(F)F)cc1)C(=O)O [Example 44, (S,E)-4-methyl-2-(2-oxo-2-((1-(4-(trifluoromethyl)phenyl)ethyl)amino)ethyl)pent-2-enoic acid]
IC50 (IL-1β; [6]): 4.2 µM | half-life at 10 μM [1]: > 7.67 h | Clint [2]: <3 μL min^−1 10^−6 cells | half-life at 10 μM [3]: 3.98 h | Clint [4]: 6 μL min^−1 10^−6 cells

C=C(CC(=O)N[C@@H](C)c1ccc(C(F)(F)F)cn1)C(=O)OC1CCN(C)CC1 [Example 32, 1-methylpiperidin-4-yl (S)-2-methylene-4-oxo-4-((1-(5-(trifluoromethyl)pyridin-2-yl)ethyl)amino)butanoate]
IC50 (IL-1β; [6]): 8.9 µM | Emax [5, 8]: 12% | Emax [5, 9]: 58% | EC50 [5, 10]: > 100 µM | EC50 [5, 11]: 46.2 µM | half-life at 10 μM [1]: 2.05 h | Clint [2]: 12 μL min^−1 10^−6 cells | half-life at 10 μM [3]: 0.333 h | Clint [4]: 87 μL min^−1 10^−6 cells

C=C(C(=O)O)C(C)C(=O)NC(C)(C)c1ccc(C(F)(F)F)cc1 (single isomer, unassigned; isomer 1) [Example 52, 3-methyl-2-methylene-4-oxo-4-((2-(4-(trifluoromethyl)phenyl)propan-2-yl)amino)butanoic acid ISOMER 1]
IC50 (IL-1β; differentiated THP-1 cells, LPS 24 hr then Nigericin 1 hour, read-out: IL-1β (IC50)): 18.7 µM | half-life at 10 μM [1]: > 7.67 h | Clint [2]: <3 μL min^−1 10^−6 cells | half-life at 10 μM [3]: 7.18 h | T½ ([4]; 10 μM): >7.67 h

C=C(CC(=O)NCc1ccc(Cl)cc1)C(=O)OC1CCN(S(C)(=O)=O)CC1 [Example 1, 1-(methylsulfonyl)piperidin-4-yl 4-((4-chlorobenzyl)amino)-2-methylene-4-oxobutanoate]
IC50 (IL-1β; [6]): 12.3 µM | Emax [5, 8]: 19% | Emax [5, 9]: 63% | EC50 [5, 10]: > 100 µM | EC50 [5, 11]: 22.3 µM | half-life at 10 μM [1]: 1.95 h | half-life at 10 μM ([1]; data from repeated experiments): 0.783 h | Clint [2]: 12 μL min^−1 10^−6 cells | Clint, data from repeated experiments [2]: 31ª μL min^−1 10^−6 cells | half-life at 10 μM [3]: 1.63 h | half-life at 10 μM ([3]; data from repeated experiments): 0.183 h | Clint [4]: 31 μL min^−1 10^−6 cells | Clint, data from repeated experiments [4]: 133 μL min^−1 10^−6 cells
